Assay results: patent US20230348376A1 (TEIJIN PHARMA LIMITED, priority 2020, published 2023)

Each molecule was assayed on rat oligodendrocyte progenitor cells (assay: Promotive activity of rat oligodendrocyte progenitor cell differentiation-2 (immunostaining of MBP)). Conditions: Test 3; vitamin D derivative 2 μM, T3 30 nM; 4 days.
Assay type: cell-based
Method: The promotive activity of oligodendrocyte progenitor cell (OPC) differentiation of the vitamin D derivatives was evaluated by immunostaining of MBP.
Subsequently, oligodendrocyte progenitor cell separation medium was added to the flask, and the mixture was similarly shaken for about 22 hours (37° C., 200 rpm), and the supernatant was collected to prepare oligodendrocyte progenitor cells.

First: C=C1/C(=C\C=C2/CCC[C@]3(C)[C@@H]([C@H](C)CN4CCOC[C@@H]4C)CC[C@@H]23)C[C@@H](O)C[C@@H]1O [Compound F004, (1R,3S,Z)-5-(2-((1R,3aS,7aR,E)-7a-methyl-1-((S)-1-((S)-3-methylmorpholino)propan-2-yl)octahydro-4H-inden-4-ylidene)ethylidene)-4-methylenecyclohexane-1,3-diol]
Second: C=C1/C(=C\C=C2/CCC[C@]3(C)[C@@H]([C@H](C)CN4CCOC[C@H]4C)CC[C@@H]23)C[C@@H](O)C[C@@H]1O [Compound F005, (1R,3S,Z)-5-(2-((1R,3aS,7aR,E)-7a-methyl-1-((S)-1-((R)-3-methylmorpholino)propan-2-yl)octahydro-4H-inden-4-ylidene)ethylidene)-4-methylenecyclohexane-1,3-diol]
The “Mean (number of MBP-positive cells/number of Hoechst33342-positive cells)” value of the first is lower: 0.37 for the first, 0.40 for the second.

First: C[C@H](CN1CCCC[C@@H]1C)[C@H]1CC[C@H]2/C(=C/C=C3C[C@@H](O)C[C@H](O)C3)CCC[C@]12C [Compound G001, (1R,3R)-5-(2-((1R,3aS,7aR,E)-7a-methyl-1-((S)-1-((S)-2-methylpiperidin-1-yl)propan-2-yl)octahydro-4H-inden-4-ylidene)ethylidene)cyclohexane-1,3-diol]
Second: C[C@H](CN1CCCC[C@H]1C)[C@H]1CC[C@H]2/C(=C/C=C3C[C@@H](O)C[C@H](O)C3)CCC[C@]12C [Compound G002, (1R,3R)-5-(2-((1R,3aS,7aR,E)-7a-methyl-1-((S)-1-((R)-2-methylpiperidin-1-yl)propan-2-yl)octahydro-4H-inden-4-ylidene)ethylidene)cyclohexane-1,3-diol]
The “Mean (number of MBP-positive cells/number of Hoechst33342-positive cells)” value of the first is higher: 0.34 for the first, 0.33 for the second.

In the case of C[C@H](CN1CCCCC1(C)C)[C@H]1CC[C@H]2/C(=C/C=C3C[C@@H](O)C[C@H](O)C3)CCC[C@]12C [Compound G003, (1R,3R)-5-(2-((1R,3aS,7aR,E)-1-((S)-1-(2,2-dimethylpiperidin-1-yl)propan-2-yl)-7a-methyloctahydro-4H-inden-4-ylidene)ethylidene)cyclohexane-1,3-diol], the “Mean (number of MBP-positive cells/number of Hoechst33342-positive cells)” value was 0.47.

Same assay, conditions: Test 4; vitamin D derivative 2 μM, T3 30 nM; 4 days

Compared with C=C1/C(=C\C=C2/CCC[C@]3(C)[C@@H]([C@H](C)CN4CCOCC4(C)C)CC[C@@H]23)C[C@@H](O)C[C@@H]1O [Compound F006, (1R,3S,Z)-5-(2-((1R,3aS,7aR,E)-1-((S)-1-(3,3-dimethylmorpholino)propan-2-yl)-7a-methyloctahydro-4H-inden-4-ylidene)ethylidene)-4-methylenecyclohexane-1,3-diol], C[C@H](CN1CCOCC12CC2)[C@H]1CC[C@H]2/C(=C/C=C3C[C@@H](O)C[C@H](O)C3)CCC[C@]12C [Compound G007, (1R,3R)-5-(2-((1R,3aS,7aR,E)-1-((S)-1-(7-oxa-4-azaspiro[2.5]octan-4-yl)propan-2-yl)-7a-methyloctahydro-4H-inden-4-ylidene)ethylidene)cyclohexane-1,3-diol] is lower in “Mean (number of MBP-positive cells/number of Hoechst33342-positive cells)” value: 0.44 for the first, 0.34 for the second.

Same assay, conditions: Test 5; vitamin D derivative 2 μM, T3 30 nM; 4 days

Going from C=C1/C(=C\C=C2/CCC[C@]3(C)[C@@H]([C@H](C)CN4CCOC[C@@H]4C4CC4)CC[C@@H]23)C[C@@H](O)C[C@@H]1O [Compound F008, (1R,3 S,Z)-5-(2-((1R,3aS,7aR,E)-1-((S)-1-((S)-3-cyclopropylmorpholino)propan-2-yl)-7a-methyloctahydro-4H-inden-4-ylidene)ethylidene)-4-methylenecyclohexane-1,3-diol] to C[C@H](CN1CCOC[C@@H]1C1CC1)[C@H]1CC[C@H]2/C(=C/C=C3C[C@@H](O)C[C@H](O)C3)CCC[C@]12C [Compound G008, (1R,3R)-5-(2-((1R,3aS,7aR,E)-1-((S)-1-((S)-3-cyclopropylmorpholino)propan-2-yl)-7a-methyloctahydro-4H-inden-4-ylidene)ethylidene)cyclohexane-1,3-diol], the “Mean (number of MBP-positive cells/number of Hoechst33342-positive cells)” value falls from 0.45 to 0.36.

Compared with C=C1/C(=C\C=C2/CCC[C@]3(C)[C@@H]([C@H](C)CN4CCN(C)C[C@@H]4C)CC[C@@H]23)C[C@@H](O)C[C@@H]1O [Compound F011, (1R,3S,Z)-5-(2-((1R,3aS,7aR,E)-1-((S)-1-((S)-2,4-dimethylpiperazin-1-yl)propan-2-yl)-7a-methyloctahydro-4H-inden-4-ylidene)ethylidene)-4-methylenecyclohexane-1,3-diol], C[C@H](CN1CCN(C)C[C@@H]1C)[C@H]1CC[C@H]2/C(=C/C=C3C[C@@H](O)C[C@H](O)C3)CCC[C@]12C [Compound G011, (1R,3R)-5-(2-((1R,3aS,7aR,E)-1-((S)-1-((S)-2,4-dimethylpiperazin-1-yl)propan-2-yl)-7a-methyloctahydro-4H-inden-4-ylidene)ethylidene)cyclohexane-1,3-diol] is lower in “Mean (number of MBP-positive cells/number of Hoechst33342-positive cells)” value: 0.26 for the first, 0.22 for the second.

In the case of C[C@H](CN1CCN(C)C[C@H]1C)[C@H]1CC[C@H]2/C(=C/C=C3C[C@@H](O)C[C@H](O)C3)CCC[C@]12C [Compound G012, (1R,3R)-5-(2-((1R,3aS,7aR,E)-1-((S)-1-((R)-2,4-dimethylpiperazin-1-yl)propan-2-yl)-7a-methyloctahydro-4H-inden-4-ylidene)ethylidene)cyclohexane-1,3-diol], the “Mean (number of MBP-positive cells/number of Hoechst33342-positive cells)” value was 0.22.

Same assay, conditions: Test 7; vitamin D derivative 2 μM, T3 30 nM; 4 days

Compared with C=C1/C(=C\C=C2/CCC[C@]3(C)[C@@H]([C@H](C)CN4CCCC[C@@H]4C)CC[C@@H]23)C[C@@H](O)C[C@@H]1O [Compound F001, (1R,3S,Z)-5-(2-((1R,3aS,7aR,E)-7a-methyl-1-((S)-1-((S)-2-methylpiperidin-1-yl)propan-2-yl)octahydro-4H-inden-4-ylidene)ethylidene)-4-methylenecyclohexane-1,3-diol], C=C1/C(=C\C=C2/CCC[C@]3(C)[C@@H]([C@H](C)CN4CCCC[C@H]4C)CC[C@@H]23)C[C@@H](O)C[C@@H]1O [Compound F002, (1R,3S,Z)-5-(2-((1R,3aS,7aR,E)-7a-methyl-1-((S)-1-((R)-2-methylpiperidin-1-yl)propan-2-yl)octahydro-4H-inden-4-ylidene)ethylidene)-4-methylenecyclohexane-1,3-diol] is higher in “Mean (number of MBP-positive cells/number of Hoechst33342-positive cells)” value: 0.29 for the first, 0.31 for the second.

Going from C=C1/C(=C\C=C2/CCC[C@]3(C)[C@@H]([C@H](C)CN4CCCCC4(C)C)CC[C@@H]23)C[C@@H](O)C[C@@H]1O [Compound F003, (1R,3S,Z)-5-(2-((1R,3aS,7aR,E)-1-((S)-1-(2,2-dimethylpiperidin-1-yl)propan-2-yl)-7a-methyloctahydro-4H-inden-4-ylidene)ethylidene)-4-methylenecyclohexane-1,3-diol] to C=C1/C(=C\C=C2/CCC[C@]3(C)[C@@H]([C@H](C)CN4CCN(C)C[C@H]4C)CC[C@@H]23)C[C@@H](O)C[C@@H]1O [Compound F012, (1R,3S,Z)-5-(2-((1R,3aS,7aR,E)-1-((S)-1-((R)-2,4-dimethylpiperazin-1-yl)propan-2-yl)-7a-methyloctahydro-4H-inden-4-ylidene)ethylidene)-4-methylenecyclohexane-1,3-diol], the “Mean (number of MBP-positive cells/number of Hoechst33342-positive cells)” value falls from 0.32 to 0.23.

Same assay, conditions: Test 8; vitamin D derivative 2 μM, T3 30 nM; 4 days

Going from C=C1/C(=C\C=C2/CCC[C@]3(C)[C@@H]([C@H](C)CN4CCC[C@H]4C(C)(C)O)CC[C@@H]23)C[C@@H](O)C[C@@H]1O [Compound F014, (1R,3S,Z)-5-(2-((1R,3aS,7aR,E)-1-((S)-1-((S)-2-(2-hydroxypropan-2-yl)pyrrolidin-1-yl)propan-2-yl)-7a-methyloctahydro-4H-inden-4-ylidene)ethylidene)-4-methylenecyclohexane-1,3-diol] to C=C1/C(=C\C=C2/CCC[C@]3(C)[C@@H]([C@H](C)CN4CCC[C@@H]4C(C)(C)OC)CC[C@@H]23)C[C@@H](O)C[C@@H]1O [Compound F015, (1R,3S,Z)-5-(2-((1R,3aS,7aR,E)-1-((S)-1-((R)-2-(2-methoxypropan-2-yl)pyrrolidin-1-yl)propan-2-yl)-7a-methyloctahydro-4H-inden-4-ylidene)ethylidene)-4-methylenecyclohexane-1,3-diol], the “Mean (number of MBP-positive cells/number of Hoechst33342-positive cells)” value rises from 0.29 to 0.35.

For C=C1/C(=C\C=C2/CCC[C@]3(C)[C@@H]([C@H](C)CN4CCC[C@H]4C(C)(C)OC)CC[C@@H]23)C[C@@H](O)C[C@@H]1O [Compound F016, (1R,3S,Z)-5-(2-((1R,3aS,7aR,E)-1-((S)-1-((S)-2-(2-methoxypropan-2-yl)pyrrolidin-1-yl)propan-2-yl)-7a-methyloctahydro-4H-inden-4-ylidene)ethylidene)-4-methylenecyclohexane-1,3-diol], the “Mean (number of MBP-positive cells/number of Hoechst33342-positive cells)” value was 0.32.

Same assay, conditions: Test 9; vitamin D derivative 2 μM, T3 30 nM; 4 days

For C=C1/C(=C\C=C2/CCC[C@]3(C)[C@@H]([C@H](C)CN4CCC[C@@H]4C(C)(C)O)CC[C@@H]23)C[C@@H](O)C[C@@H]1O [Compound F013, (1R,3S,Z)-5-(2-((1R,3aS,7aR,E)-1-((S)-1-((R)-2-(2-hydroxypropan-2-yl)pyrrolidin-1-yl)propan-2-yl)-7a-methyloctahydro-4H-inden-4-ylidene)ethylidene)-4-methylenecyclohexane-1,3-diol], the “Mean (number of MBP-positive cells/number of Hoechst33342-positive cells)” value was 0.31.
